Measured values taken from article PMC9781003, “Two Antenna-Enriched Odorant Binding Proteins in Dioryctria abietella Tuned to General Odorants and Insecticides” (Insects, 2022).
“And” between values parts separate entries of the source, which are not always exact repeats. Equal entries are not always repeated. Where two headings read alike, the source gives them in different places.

Legend:
[1] = molecular target: T1, DabiOBP5 (Dioryctria abietella, UniProt A0A8E6HS34); assay: Competitive fluorescence binding assay with 1-NPN probe, recombinant DabiOBP5
T1 sequence (A0A8E6HS34 19-139): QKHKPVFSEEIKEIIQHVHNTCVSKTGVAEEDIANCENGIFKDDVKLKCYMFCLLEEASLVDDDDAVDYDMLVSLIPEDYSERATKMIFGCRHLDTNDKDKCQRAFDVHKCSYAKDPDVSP
From the text: In the binding assays, we selected 100 compounds derived from host/non-host plants and man-made insecticides widely used for the control of lepidopteran pests, representing 88 general odorants (21 esters, 21 alcohols, 14 aldehydes, 13 alkenes, seven ketones, 11 alkanes and one acid) and 12 insecticides. These compounds and N-phenyl-1-naphthylamine (1-NPN) were purchased from Aladdin and Sigma-Aldrich, with the highest available purity. […] The concentrations of the work solution for each ligand and 1-NPN were set at 1 mM.
In order to measure the binding properties of the DabiOBPs to the 100 ligands, competitive binding assays were performed on a RF5301PC fluorescence spectrophotometer (Shimadzu, Japan). The concentrations of DabiOBPs and the fluorescent probe 1-NPN were set at 2 μM. […] Accordingly, binding constants (K1-NPN) of the DabiOBPs and 1-NPN were calculated using GraphPad Prism 7 (GraphPad Software Inc., San Diego, CA). […] For the ligands replacing over a half of 1-NPN fluorescence (50%) at 20 μM, three replicates were performed. The excitation wavelength was set at 337 nm and the emission peaks were recorded at around 400 nm.

[2] = test system: DabiOBP14; format: binding, Dioryctria abietella; conditions: for Ki: competitive displacement of 1-NPN, three replicates, mean ± SE, read-out: OBP14 Ki (dissociation constant)
Method: In the binding assays, we selected 100 compounds derived from host/non-host plants and man-made insecticides widely used for the control of lepidopteran pests, representing 88 general odorants (21 esters, 21 alcohols, 14 aldehydes, 13 alkenes, seven ketones, 11 alkanes and one acid) and 12 insecticides. These compounds and N-phenyl-1-naphthylamine (1-NPN) were purchased from Aladdin and Sigma-Aldrich, with the highest available purity. They were first diluted into 100 mM, using methanol (HPLC purity grade, ≥99.9%) as a stock solution. The concentrations of the work solution for each ligand and 1-NPN were set at 1 mM.
In order to measure the binding properties of the DabiOBPs to the 100 ligands, competitive binding assays were performed on a RF5301PC fluorescence spectrophotometer (Shimadzu, Japan). The concentrations of DabiOBPs and the fluorescent probe 1-NPN were set at 2 μM. The binding of DabiOBPs to 1-NPN in 20 mM Tris-HCl buffer (pH 7.4) was measured by adding final concentrations of 2–16 μM 1-NPN. Accordingly, binding constants (K1-NPN) of the DabiOBPs and 1-NPN were calculated using GraphPad Prism 7 (GraphPad Software Inc., San Diego, CA). The binding of the DabiOBPs to various ligands was conducted by adding different concentrations of ligands (2, 4, 6, 8, 12, 16 and 20 μM) into the DabiOBP5/1-NPN (each 2 μM) or DabiOBP14/1-NPN (each 2 μM) mixtures. For the ligands replacing over a half of 1-NPN fluorescence (50%) at 20 μM, three replicates were performed. The excitation wavelength was set at 337 nm and the emission peaks were recorded at around 400 nm. The dissociation constants (Ki) of the tested ligands to DabiOBPs were computed, using the equation: Ki = [IC50]/(1 + [1-NPN]/K1-NPN), where [1-NPN] was the free concentration of 1-NPN and IC50 was the concentration of ligands replacing 50% of 1-NPN fluorescence.

[3] = ligand at 20 μM; DabiOBP5/1-NPN each 2 μM; Tris-HCl pH 7.4; NB = no binding; read-out: OBP5 F.D. (%) fluorescence displacement percent
[4] = ligand at 20 μM, DabiOBP14/1-NPN each 2 μM, Tris-HCl pH 7.4, NB = no binding
[5] = ligand at 20 μM; DabiOBP5/1-NPN each 2 μM; Tris-HCl pH 7.4; NB = no binding
[6] = pH 7.4, read-out: OBP5 F.D. (%) fluorescence displacement percent
[7] = read-out: OBP5 Ki (dissociation constant); competitive displacement of 1-NPN; three replicates; mean ± SE

N#Cc1nn(-c2c(Cl)cc(C(F)(F)F)cc2Cl)c(N)c1[S+]([O-])C(F)(F)F (centres unmarked) [Fipronil]
inhibition at 20 µM [1, 3]: 23.7% | OBP14 F.D. (%) fluorescence displacement percent [2, 4]: 29.70%

CC(C)=CCC/C(C)=C/CO [Geraniol]
inhibition at 20 µM [1, 3]: 32.9% | OBP14 F.D. (%) fluorescence displacement percent [2, 4]: 28.67%

CC(=O)OC/C=C(\C)CCC=C(C)C [Geranyl acetate]
inhibition at 20 µM [1, 3]: 26.5% | OBP14 F.D. (%) fluorescence displacement percent [2, 4]: 27.39%

CCCCCCC=O [Heptanal]
inhibition at 20 µM [1, 3]: 42.5% | OBP14 F.D. (%) fluorescence displacement percent [2, 4]: 25.87%

CCCCCCC [Heptane]
inhibition at 20 µM [1, 3]: 31.4% | OBP14 F.D. (%) fluorescence displacement percent [2, 4]: 22.91%

CCCCCCCOC(C)=O [Heptyl acetate]
inhibition at 20 µM [1, 3]: 41% | OBP14 F.D. (%) fluorescence displacement percent [2, 4]: 33.70%

CCCCCC=O [Hexanal]
inhibition at 20 µM [1, 3]: 39.3% | OBP14 F.D. (%) fluorescence displacement percent [2, 4]: 32.96%

CCCCCCOC(C)=O [Hexyl acetate]
inhibition at 20 µM [1, 3]: 23.7% | OBP14 F.D. (%) fluorescence displacement percent [2, 4]: 29.22%

O=[N+]([O-])NC1=NCCN1Cc1ccc(Cl)nc1 [Imidacloprid]
inhibition at 20 µM [1, 3]: 22.5% | OBP14 F.D. (%) fluorescence displacement percent [2, 4]: 39.56%

CCCCCCCCCCCC(=O)O [Lauric acid]
OBP5 F.D. (%) fluorescence displacement percent [1, 5]: 33.87% | OBP14 F.D. (%) fluorescence displacement percent [2, 4]: 30.18%

C=C(C)[C@H]1CC=C(C)CC1 [Limonene]
OBP5 F.D. (%) fluorescence displacement percent [1, 5]: 38.31% | OBP14 F.D. (%) fluorescence displacement percent [2, 4]: 30.81%

C=CC(C)(O)CCC=C(C)C (centres unmarked) [Linalool]
inhibition at 20 µM [1, 3]: 33.3% | OBP14 F.D. (%) fluorescence displacement percent [2, 4]: 31.71%

O=C1CCC[C@@H]2[C@H]3CCCN4CCC[C@@H](CN12)[C@@H]34 [Matrine]
inhibition at 20 µM [1, 3]: 29% | OBP14 F.D. (%) fluorescence displacement percent [2, 4]: 29.59%

COC(C)=O [Methyl acetate]
OBP5 F.D. (%) fluorescence displacement percent [1, 5]: 27.62% | OBP14 F.D. (%) fluorescence displacement percent [2, 4]: 27.21%

COC(=O)c1ccccc1 [Methyl benzoate]
inhibition at 20 µM [1, 3]: 30.5% | OBP14 F.D. (%) fluorescence displacement percent [2, 4]: 30.65%

CCCCCCCCCCCC(=O)OC [Methyl laurate]
inhibition at 20 µM [1, 3]: 7.25% | OBP14 F.D. (%) fluorescence displacement percent [2, 4]: 12.60%

C=CC(=C)CCC=C(C)C [Myrcene]
inhibition at 20 µM [1, 3]: 37.1% | OBP14 F.D. (%) fluorescence displacement percent [2, 4]: 34.84%

CCCCCCCCCCCCCCCCCCC [Nonadecane]
inhibition at 20 µM [1, 3]: 27.7% | OBP14 F.D. (%) fluorescence displacement percent [2, 4]: 15.30%

CCCCCCCCC=O [Nonanal]
inhibition at 20 µM [1, 3]: 31.5% | OBP14 F.D. (%) fluorescence displacement percent [2, 4]: 23.55%

CCCCCCCCCOC(C)=O [Nonyl acetate]
inhibition at 20 µM [1, 3]: 16.5% | OBP14 F.D. (%) fluorescence displacement percent [2, 4]: 22.98%

C=CC(C)=CCC=C(C)C [Ocimene]
OBP5 F.D. (%) fluorescence displacement percent [1, 5]: 33.97% | OBP14 F.D. (%) fluorescence displacement percent [2, 4]: 33.18%

CCCCCCCCCCCCCCCCCC [Octadecane]
inhibition at 20 µM [1, 3]: 26.5% | OBP14 F.D. (%) fluorescence displacement percent [2, 4]: 23.94%

CCCCCCCC=O [Octanal]
inhibition at 20 µM [1, 3]: 35.6% | OBP14 F.D. (%) fluorescence displacement percent [2, 4]: 34.48%

CCCCCCCCOC(C)=O [Octyl acetate]
inhibition at 20 µM [1, 3]: 35.4% | OBP14 F.D. (%) fluorescence displacement percent [2, 4]: 30.09%

OCCc1ccccc1 [Phenethyl alcohol]
inhibition at 20 µM [1, 3]: 37.6% | OBP14 F.D. (%) fluorescence displacement percent [2, 4]: 10.00%

O=C(Oc1ccccc1)c1ccccc1 [Phenyl benzoate]
inhibition at 20 µM [1, 3]: 31.7% | OBP14 F.D. (%) fluorescence displacement percent [2, 4]: 34.36%

O=CCc1ccccc1 [Phenylacetaldehyde]
inhibition at 20 µM [1, 3]: 29.1% | OBP14 F.D. (%) fluorescence displacement percent [2, 4]: 33.05%

CCOP(=S)(OCC)O/N=C(\C#N)c1ccccc1 [Phoxim]
inhibition at 20 µM [1, 6]: 82% | Ki [1, 7]: < 13 µM and 2.89 µM | Ki ([2]; listed as phoxim): < 13 µM | Ki [2]: 2.38 ± 0.28 µM | OBP14 F.D. (%) fluorescence displacement percent [2, 4]: 89.62%

CCCOC(C)=O [Propyl acetate]
inhibition at 20 µM [1, 3]: 31.4% | OBP14 F.D. (%) fluorescence displacement percent [2, 4]: 25.46%

C=C(C)[C@H]1Cc2c(ccc3c2O[C@@H]2COc4cc(OC)c(OC)cc4[C@@H]2C3=O)O1 [Rotenone]
inhibition at 20 µM [1, 6]: 56% | Ki [1, 7]: < 13 µM and 12.7 µM | Ki [2]: < 13 µM and 10.2 µM | OBP14 F.D. (%) fluorescence displacement percent [2, 4]: 58.66%

CC(C)=CCC/C(C)=C/CC/C(C)=C/CC/C=C(\C)CC/C=C(\C)CCC=C(C)C [Squalene]
inhibition at 20 µM [1, 3]: 32.3% | OBP14 F.D. (%) fluorescence displacement percent [2, 4]: 24.81%

COc1cc(C=O)cc(OC)c1O [Syringaldehyde]
inhibition at 20 µM [1, 3]: 38.5% | OBP14 F.D. (%) fluorescence displacement percent [2, 4]: 34.32%

CCCCCCCCCCCCCC [Tetradecane]
inhibition at 20 µM [1, 3]: 25% | OBP14 F.D. (%) fluorescence displacement percent [2, 4]: 27.13%

CCCCCCCCCCCCCCCCCCCCCCC [Tricosane]
inhibition at 20 µM [1, 3]: 32.8% | OBP14 F.D. (%) fluorescence displacement percent [2, 4]: 27.90%

CCCCCCCCCCC=O [Undecanal]
inhibition at 20 µM [1, 3]: 27.8% | OBP14 F.D. (%) fluorescence displacement percent [2, 4]: 35.28%

CCCCCCCCCCC [Undecane]
inhibition at 20 µM [1, 3]: 4.42% | OBP14 F.D. (%) fluorescence displacement percent [2, 4]: 6.47%

CCC/C=C\C=O [Z2-Hexenal]
OBP5 F.D. (%) fluorescence displacement percent [1, 5]: 39.42% | OBP14 F.D. (%) fluorescence displacement percent [2, 4]: 33.09%

CC/C=C\CCO [Z3-Hexen-1-ol]
OBP5 F.D. (%) fluorescence displacement percent [1, 5]: 28.57% | OBP14 F.D. (%) fluorescence displacement percent [2, 4]: 24.52%

CC/C=C\CCOC(C)=O [Z3-Hexenyl acetate]
OBP5 F.D. (%) fluorescence displacement percent [1, 5]: 27.72% | OBP14 F.D. (%) fluorescence displacement percent [2, 4]: 31.25%

CC/C=C\CCOC(=O)CCC [Z3-Hexenyl butyrate]
OBP5 F.D. (%) fluorescence displacement percent [1, 5]: 20.80% | OBP14 F.D. (%) fluorescence displacement percent ([2]; pH 7.4): 26.39%

CC1=CC[C@H](C(C)C)C=C1 [α-Phellandrene]
inhibition at 20 µM [1, 3]: 37.4% | OBP14 F.D. (%) fluorescence displacement percent [2, 4]: 36.07%

CC1=CCC2CC1C2(C)C (stereo not drawn) [α-Pinene]
inhibition at 20 µM [1, 3]: 25.1% | OBP14 F.D. (%) fluorescence displacement percent [2, 4]: 29.24%

CC1=CC=C(C(C)C)CC1 [α-Terpinene]
inhibition at 20 µM [1, 3]: 35.1% | OBP14 F.D. (%) fluorescence displacement percent [2, 4]: 27.93%

CC1=CC[C@@H](C(C)(C)O)CC1 [α-Terpineol]
inhibition at 20 µM [1, 3]: 33.9% | OBP14 F.D. (%) fluorescence displacement percent [2, 4]: 30.28%

CC1=C(C=O)C(C)(C)CCC1 [β-Cyclocitral]
OBP5 F.D. (%) fluorescence displacement percent [1, 5]: 32.90% | OBP14 F.D. (%) fluorescence displacement percent [2, 4]: 32.77%

CC(=O)/C=C/C1=C(C)CCCC1(C)C [β-Ionone]
Ki ([1]; competitive displacement of 1-NPN; three replicates; mean ± SE; listed as β-ionone; read-out: OBP5 Ki (dissociation constant)): < 13 µM | Ki ([1]; competitive displacement of 1-NPN; three replicates; mean ± SE; read-out: OBP5 Ki (dissociation constant)): 9.11 ± 1.03 µM | inhibition at 20 µM [1, 3]: 59.5% | Ki ([2]; listed as β-ionone): < 13 µM | Ki [2]: 8.39 ± 1.04 µM | OBP14 F.D. (%) fluorescence displacement percent [2, 4]: 62.86%

CC1=CCC(C(C)C)=CC1 [γ-Terpinene]
inhibition at 20 µM [1, 3]: 28.2% | OBP14 F.D. (%) fluorescence displacement percent [2, 4]: 24.46%

Abamectin
OBP5 F.D. (%) fluorescence displacement percent [1, 5]: 24.16% | OBP14 F.D. (%) fluorescence displacement percent [2, 4]: 4.33%

Farnesene
OBP5 F.D. (%) fluorescence displacement percent [1, 5]: 40.68% | OBP14 F.D. (%) fluorescence displacement percent [2, 4]: 17.77%
